Reference: US20060089375A1, “Pyrazolo[3,4-b] pyridine compounds, and their use as phosphodiesterase inhibitors” (priority 2002, published 2006)

Tests used:
[1] = target: T1, PDE4B (human recombinant) (Homo sapiens, UniProt Q07343); test: Inhibition of PDE4B activity: radioactive SPA or IMAP Fluorescence Polarisation (FP) assay; assay type: biochemical; details: PDE4B inhibitory activity, one reading or average of ca. 2-6 readings, read-out: PDE4B pIC50 (± about 0.5) (converted)
T1 construct: made in house
T1 sequence (Q07343 1-564 isoform Q07343-2): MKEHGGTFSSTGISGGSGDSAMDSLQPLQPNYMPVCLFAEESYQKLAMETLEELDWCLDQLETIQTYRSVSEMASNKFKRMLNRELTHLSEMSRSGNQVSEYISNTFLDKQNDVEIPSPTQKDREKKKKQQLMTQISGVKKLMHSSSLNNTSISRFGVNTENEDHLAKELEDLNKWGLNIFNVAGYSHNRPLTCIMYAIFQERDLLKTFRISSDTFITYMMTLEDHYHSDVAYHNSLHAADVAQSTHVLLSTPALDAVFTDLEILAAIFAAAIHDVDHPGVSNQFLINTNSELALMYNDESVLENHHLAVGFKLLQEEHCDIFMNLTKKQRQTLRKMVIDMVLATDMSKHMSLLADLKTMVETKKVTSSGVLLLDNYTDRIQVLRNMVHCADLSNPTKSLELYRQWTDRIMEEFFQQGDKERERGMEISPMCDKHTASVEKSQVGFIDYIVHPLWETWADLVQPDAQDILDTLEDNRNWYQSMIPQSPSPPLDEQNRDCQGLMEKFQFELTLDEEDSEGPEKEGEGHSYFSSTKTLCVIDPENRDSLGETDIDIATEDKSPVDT
Text: Human recombinant PDE4B, in particular the 2B splice variant thereof (HSPDE4B2B), is disclosed in WO 94/20079 and also M. M. McLaughlin et al., “A low Km, rolipram-sensitive, cAMP-specific phosphodiesterase from human brain: cloning and expression of cDNA, biochemical characterisation of recombinant protein, and tissue distribution of mRNA”, J. Biol. Chem., 1993, 268, 6470-6476. For example, in Example 1 of WO 94/20079, human recombinant PDE4B is described as being expressed in the PDE-deficient yeast Saccharomyces cerevisiae strain GL62, e.g. after induction by addition of 150 uM CuSO4, and 100,000×g supernatant fractions of yeast cell lysates are described for use in the harvesting of PDE4B enzyme.
The ability of compounds to inhibit catalytic activity at PDE4B or 4D (human recombinant), PDE3 (from bovine aorta), PDE5 (human recombinant) or PDE6 (from bovine retina) was determined by Scintillation Proximity Assay (SPA) in 96-well format. Test compounds (preferably as a solution in DMSO, e.g. 0.5 to 1 microlitre (ul) volume) were preincubated at ambient temperature (room temperature, e.g. 19-23° C.) in Wallac Isoplates (code 1450-514) with PDE enzyme in 50 mM Tris-HCl buffer pH 7.5, 8.3 mM MgCl2, 1.7 mM EGTA, 0.05% (w/v) bovine serum albumin for 10-30 minutes (usually 30 minutes). The enzyme concentration was adjusted so that no more than 20% hydrolysis of the substrate defined below occurred in control wells without compound, during the incubation. For the PDE3, PDE4B and PDE4D assays, [5′,8-^3H]Adenosine 3′,5′-cyclic phosphate (Amersham Pharmacia Biotech, code TRK.559; or Amersham Biosciences UK Ltd, Pollards Wood, Chalfont St Giles, Buckinghamshire HP8 4SP, UK) was added to give 0.05 uCi per well and ˜10 nM final concentration. For the PDE5 and PDE6 assays, [8-^3H]Guanosine 3′,5′-cyclic phosphate (Amersham Pharmacia Biotech, code TRK.392) was added to give 0.05 uCi per well and ˜36 nM final concentration. Plates, e.g. containing approx. 100 ul volume of assay mixture, were mixed on an orbital shaker for 5 minutes and incubated at ambient temperature for 1 hour. Phosphodiesterase SPA beads (Amersham Pharmacia Biotech, code RPNQ 0150) were added ([…] per well) to terminate the assay. Plates were sealed and shaken and allowed to stand at ambient temperature for 35 minutes to 1 hour (preferably 35 minutes) to allow the beads to settle. Bound radioactive product was measured using a WALLAC TRILUX 1450 Microbeta scintillation counter. For inhibition curves, 10 concentrations (1.5 nM-30 uM) of each compound were assayed. Curves were analysed using ActivityBase and XLfit (ID. Business Solutions Limited, 2 Ocean Court, Surrey Research Park, Guildford, Surrey GU2 7QB, United Kindgom) Results were expressed as pIC50 values.
The ability of compounds to inhibit catalytic activity at PDE4B (human recombinant) or PDE4D (human recombinant) was determined by IMAP Fluorescence Polarisation ([…]) assay (IMAP Explorer kit, available from Molecular Devices Corporation, Sunnydale, Calif., USA; Molecular Devices code: R^8062) in 384-well format. The IMAP FP assay is able to measure PDE activity in an homogenous, non-radioactive assay format. The FP assay uses the ability of immobilised trivalent metal cations, coated onto nanoparticles (tiny beads), to bind the phosphate group of Fl-AMP that is produced on the hydrolysis of fluorescein-labelled (Fl) cyclic adenosine mono-phosphate (Fl-cAMP) to the non-cyclic Fl-AMP form. […] Binding of Fl-AMP product to the beads (coated with the immobilised trivalent cations) slows the rotation of the bound Fl-AMP and leads to an increase in the fluorescence polarisation ratio of parallel to perpendicular light. Inhibition of the PDE reduces/inhibits this signal increase. […]

[2] = Particle size analysis of micronised material by laser diffraction (Malvern Mastersizer); assay type: physicochemical
Text: For pharmaceutical compositions suitable and/or adapted for inhaled administration, it is preferred that the compound or salt of formula (I) is in a particle-size-reduced form, and more preferably the size-reduced form is obtained or obtainable by micronisation. Micronisation usually involves subjecting the compound/salt to collisional and abrasional forces in a fast-flowing circular or spiral/vortex-shaped airstream often including a cyclone component. The preferable particle size (e.g. D50 value) of the size-reduced (e.g. micronised) compound or salt is about 0.5 to about 10 microns, e.g. about 1 to about 5 microns (e.g. as measured using laser diffraction). For example, it is preferable for the compound or salt of formula (I to have a particle size defined by: a D10 of about 0.3 to about 3 microns (e.g. about 1 micron), and/or a D50 of about 1 to about 5 microns (e.g. about 2-5 or about 2-3 microns), and/or a D90 of about 2 to about 20 microns or about 3 to about 10 microns (e.g. about 5-8 or about 5-6 microns); for example as measured using laser diffraction. The laser diffraction measurement can use a dry method (suspension of compound/salt in airflow crosses laser beam) or a wet method [suspension of compound/salt in liquid dispersing medium, such as isooctane or (e.g. if compound soluble in isooctane) 0.1% Tween 80 in water, crosses laser beam]. With laser diffraction, particle size is preferably calculated using the Fraunhofer calculation; and/or preferably a Malvern Mastersizer or Sympatec apparatus is used for measurement.
Particle size analysis of Example 518 micronised material from Procedure 2, using laser diffraction measurement with Malvern Mastersizer longbed version, dispersing medium 0.1% Tween 80 in water, stir rate 1500 rpm, 3 mins sonification prior to final dispersion and analysis, 300 RF Reverse Fourier) lens, Fraunhofer calculation with Malvern software: • material from collection vessel: D10=0.97 microns, D50=3.86 microns, D90=12.64 microns. • material from inside walls of cyclone: D10=0.95 microns, D50=3.42 microns, D90=9.42 microns.

[3] = system: LPS-induced pulmonary neutrophilia and emetic episodes in the conscious ferret; test: In Vivo Assay 4: Therapeutic Index of PDE4 inhibitors in the conscious ferret (LPS neutrophilia and emesis)
Description: PDE4 inhibitors are prepared for oral (p.o.) administration by dissolving in a fixed volume (1 ml) of acetone and then adding cremophor to 20% of the final volume. Acetone is evaporated by directing a flow of nitrogen gas onto the solution. Once the acetone is removed, the solution is made up to final volume with distilled water. LPS is dissolved in phosphate buffered saline.
Male ferrets (Mustela Pulorius Furo, weighing 1-2 kg) are transported and allowed to acclimatise for not less than 7 days. The diet comprises SDS diet C pelleted food given ad lib with Whiskers™ cat food given 3 times per week. The animals are supplied with pasteurised animal grade drinking water changed daily.
PDE4 inhibitors are administered orally (p.o.), using a dose volume of 1 ml/kg. Ferrets are fasted overnight but allowed free access to water. The animals are orally dosed with vehicle or PDE 4 inhibitor using a 15 cm dosing needle that is passed down the back of the throat into the oesophagus. After dosing, the animals are returned to holding cages fitted with perspex doors to allow observation, and given free access to water. The animals are constantly observed and any emetic episodes (retching and vomiting) or behavioural changes are recorded. The animals are allowed access to food 60-90 minutes after p.o. dosing.
Thirty minutes after oral dosing with compound or vehicle control, the ferrets are placed into sealed perspex containers and exposed to an aerosol of LPS (30 μg/ml) for 10 minutes. Aerosols of LPS are generated by a nebuliser (DeVilbiss, USA) and this is directed into the perspex exposure chamber. Following a 10-minute exposure period, the animals are returned to the holding cages and allowed free access to water, and at a later stage, food. General observation of the animals continues for a period of at least 2.5 hours post oral dosing. All emetic episodes and behavioural changes are recorded.
Six hours after LPS exposure the animals are killed by overdose of sodium pentobarbitone administered intraperitoneally. […] From this, the total number of neutrophils in the BAL sample is determined. […]

[4] = micronised material Procedure 2, material from collection vessel
[5] = micronised material Procedure 2, material from inside walls of cyclone

IC50 [1] | Structure (SMILES) | further results
0.1 to 6.31 nM | CCn1ncc2c(NC3CCOCC3)c(C(=O)NCc3ccc(C)c(C)c3)cnc21 [Example 518, N-[(3,4-dimethylphenyl)methyl]-1-ethyl-4-(tetrahydro-2H-pyran-4-ylamino)-1H-pyrazolo[3,4-b]pyridine-5-carboxamide] | particle size D10 [2, 4]: 0.97 microns; particle size D50 [2, 4]: 3.86 microns; particle size D90 [2, 4]: 12.64 microns; particle size D10 [2, 5]: 0.95 microns; particle size D50 [2, 5]: 3.42 microns; particle size D90 [2, 5]: 9.42 microns
0.1 to 6.31 nM | CCn1ncc2c(NC3CCC(=O)CC3)c(C(=O)NCc3cccc(Cl)c3Cl)cnc21 [Example 677, N-[(2,3-Dichlorophenyl)methyl]-1-ethyl-4-[(4-oxocyclohexyl)amino]-1H-pyrazolo[3,4-b]pyridine-5-carboxamide] | 
0.1 to 6.31 nM | CCn1ncc2c(NC3CCC(=O)CC3)c(C(=O)NCc3ccc(C)c(Cl)c3)cnc21 [Example 678, N-[(3-Chloro-4-methylphenyl)methyl]-1-ethyl-4-[(4-oxocyclohexyl)amino]-1H-pyrazolo[3,4-b]pyridine-5-carboxamide] | 
0.1 to 6.31 nM | CCn1ncc2c(NC3CCC(=O)CC3)c(C(=O)NCc3ccc(Cl)cc3C)cnc21 [Example 679, N-[(4-Chloro-2-methylphenyl)methyl]-1-ethyl-4-[(4-oxocyclohexyl)amino]-1H-pyrazolo[3,4-b]pyridine-5-carboxamide] | 
0.1 to 6.31 nM | CCn1ncc2c(NC3CCC(=NO)CC3)c(C(=O)NCc3ccc(C)cc3C)cnc21 (centres unmarked) [Example 680, N-[(2,4-Dimethylphenyl)methyl]-1-ethyl-4-{[4-(hydroxyimino)cyclohexyl]amino}-1H-pyrazolo[3,4-b]pyridine-5-carboxamide] | 
0.1 to 6.31 nM | CCn1ncc2c(NC3CCC(=NO)CC3)c(C(=O)NCc3ccc(C)c(C)c3)cnc21 (centres unmarked) [Example 681, N-[(3,4-dimethylphenyl)methyl]-1-ethyl-4-{[4-(hydroxyimino)cyclohexyl]amino}-1H-pyrazolo[3,4-b]pyridine-5-carboxamide] | 
0.1 to 6.31 nM | CCn1ncc2c(NC3CCC(=NO)CC3)c(C(=O)NCc3cccc(Cl)c3Cl)cnc21 (centres unmarked) [Example 682, N-[(2,3-Dichlorophenyl)methyl]-1-ethyl-4-{[4-(hydroxyimino)cyclohexyl]amino}-1H-pyrazolo[3,4-b]pyridine-5-carboxamide] | 
0.1 to 6.31 nM | CCn1ncc2c(NC3CCC(=NO)CC3)c(C(=O)NCc3ccc(C)c(Cl)c3)cnc21 (centres unmarked) [Example 683, N-[(3-Chloro-4-methylphenyl)methyl]-1-ethyl-4-{[4-(hydroxyimino)cyclohexyl]amino}-1H-pyrazolo[3,4-b]pyridine-5-carboxamide] | 
0.1 to 6.31 nM | CCn1ncc2c(NC3CCC(=NO)CC3)c(C(=O)NCc3ccc(Cl)cc3C)cnc21 (centres unmarked) [Example 684, N-[(4-Chloro-2-methylphenyl)methyl]-1-ethyl-4-{[4-(hydroxyimino)cyclohexyl]amino}-1H-pyrazolo[3,4-b]pyridine-5-carboxamide] | 
0.1 to 6.31 nM | CCn1ncc2c(NC3CCC(=NO)CC3)c(C(=O)NCc3ccc(OC(F)F)cc3)cnc21 (centres unmarked) [Example 685, N-({4-[(Difluoromethyl)oxy]phenyl}methyl)-1-ethyl-4-{[4-(hydroxyimino)cyclohexyl]amino}-1H-pyrazolo[3,4-b]pyridine-5-carboxamide] | 
0.1 to 6.31 nM | CCn1ncc2c(NC3CCC(=NO)CC3)c(C(=O)NCc3ccc(C(F)(F)F)cc3)cnc21 (centres unmarked) [Example 686, 1-Ethyl-4-{[4-(hydroxyimino)cyclohexyl]amino}-N-{[4-(trifluoromethyl)phenyl]methyl}-1H-pyrazolo[3,4-b]pyridine-5-carboxamide] | 
 | O=C(Nc1c(Cl)cncc1Cl)c1ccc(OC(F)F)c(OCC2CC2)c1 [roflumilast] | Therapeutic index (TI), ferret Assay 4 ([3]; D20 emesis / D50 neutrophilia, ferret p.o.): 1.02; D20 for emesis ([3]; p.o., ferret, dose giving 20% incidence of emesis): 0.5 mg/kg; D50 for neutrophilia ([3]; p.o., ferret, dose giving 50% inhibition of LPS-induced pulmonary neutrophilia): 0.49 mg/kg
